Laboratory results taken from ChEMBL document CHEMBL4765279, “Discovery of a novel series of imidazo[1',2':1,6]pyrido[2,3-d]pyrimidin derivatives as potent cyclin-dependent kinase 4/6 inhibitors” (Eur J Med Chem, 2020).
Active and inactive are the calls of the source. The calls are words filed in the database; no cut-off is given here.

Tests used:
[1] = AUC (0 to t) in BALB/c mouse at 10 mg/kg, po by LC-MS/MS analysis; format: ADME, organism-based; parameters: dose 10 mg/kg; conditions: in vivo
U-87 MG [2] = experiment: Antitumor activity against human U-87 MG cells xenografted in BALB/c mouse assessed as tumor growth at 10 mg/kg, po qd for 16 days relative to control; format: functional, U-87MG ATCC; conditions: time 16 day
CYP2C9 = CYP2C9 (Homo sapiens, UniProt P11712); experiment: Inhibition of CYP2C9 in human liver microsomes at 10 uM measured after 20 mins in presence of NADPH by LC-MS/MS analysis relative to control; format: ADME
[3] = Half life in Sprague-Dawley rat at 3 mg/kg, iv by LC-MS/MS analysis; format: ADME, organism-based; conditions: in vivo
CDK9/cyclin T1 = CDK9/cyclin T1 (Homo sapiens, UniProt P50750)
Description: Inhibition of CDK9/cyclin T1 (unknown origin)

[4] = Toxicity in human COLO 205 cells xenografted BALB/c mouse assessed as body weight loss at 30 mg/kg, po q3d for 11 days relative to control; format: organism-based; conditions: in vivo, time 11 day
COLO 205 [5] = experiment: Antitumor activity against human COLO 205 cells xenografted in BALB/c mouse assessed as reduction in tumor volume at 3 mg/kg, po qd for 11 days measured post last dose by caliper method; format: functional, organism-based; conditions: time 11.0 day
[6] = Intrinsic clearance in rat liver microsomes at 1 uM preincubated for 10 mins followed by NADPH addition and measured after 1 hr by LC-MS/MS analysis; format: ADME, Microsome; conditions: time 70 min, read-out: CLH
[7] = Half life in BALB/c mouse at 10 mg/kg, po by LC-MS/MS analysis; format: ADME, organism-based; conditions: in vivo
Cytochrome P450 2D6 = Cytochrome P450 2D6 (Homo sapiens, UniProt P10635); experiment: Time-dependent inhibition of CYP2D6 in human liver microsomes at 10 uM in presence of NADPH by LC-MS/MS analysis; format: ADME
CDK6/Cyclin D3 = CDK6/Cyclin D3 (Homo sapiens, UniProt Q00534); experiment: Inhibition of human full-length N-terminal GST tagged CDK6 (1 to 326 residues)/GST-tagged cyclinD3 (1 to 292 residues) expressed in baculovirus expression system using ULight-elF4E-binding protein 1 peptide as substrate measured after 30 mins by LANCE assay
[8] = Cmax in Sprague-Dawley rat at 6 mg/kg, po by LC-MS/MS analysis; format: ADME, organism-based; parameters: route oral, dose 6 mg/kg; conditions: in vivo
COLO 205 [9] = experiment: Antiproliferative activity against human COLO 205 cells assessed as cell growth inhibition measured after 4 to 6 days by celltiter-glo luminescent cell viability assay; format: functional, cell-based
[10] = molecular target: Cyclin-dependent kinase 1/cyclin B1 (Homo sapiens, UniProt P06493)
Description: Inhibition of CDK1/cyclin B (unknown origin)

[11] = Volume of distribution at steady state in Sprague-Dawley rat at 3 mg/kg, iv by LC-MS/MS analysis; format: ADME, organism-based; conditions: in vivo, read-out: Vdss
U-87 MG [12] = experiment: Antiproliferative activity against human U-87 MG cells assessed as cell growth inhibition measured after 4 to 6 days by celltiter-glo luminescent cell viability assay; format: functional, cell-based, U-87MG ATCC
CDK2/Cyclin A2 = CDK2/Cyclin A2 (Homo sapiens, UniProt P24941)
Description: Inhibition of CDK2/cyclin A2 (unknown origin)

U-87 MG [13] = experiment: Antitumor activity against human U-87 MG cells xenografted in BALB/c mouse assessed as tumor growth inhibition at 10 mg/kg, po qd for 16 days relative to control; format: functional, U-87MG ATCC; conditions: 384 h, time 16 day, read-out: TGI
[14] = AUC (0 to t) in Sprague-Dawley rat at 6 mg/kg, po by LC-MS/MS analysis; format: ADME, organism-based; parameters: dose 6 mg/kg; conditions: in vivo
[15] = Half life in BALB/c mouse at 3 mg/kg, iv by LC-MS/MS analysis; format: ADME, organism-based; conditions: in vivo
[16] = AUC (0 to t) in BALB/c mouse at 3 mg/kg, iv by LC-MS/MS analysis; format: ADME, organism-based; parameters: dose 3 mg/kg; conditions: in vivo
CDK4/Cyclin D3 = CDK4/Cyclin D3 (Homo sapiens, UniProt P11802); experiment: Inhibition of recombinant human full-length N-terminal GST-fused CDK4 (1 to 303 residues)/GST-tagged CyclinD3 (1 to 292 residues) expressed in baculovirus expression system using ULight-elF4E-binding protein 1 peptide as substrate measured after 30 mins by LANCE assay
COLO 205 [17] = experiment: Antitumor activity against human COLO 205 cells xenografted in BALB/c mouse assessed as tumor growth at 3 mg/kg, po qd for 11 days measured post last dose relative to control; format: functional; conditions: time 11 day
[18] = Cmax in BALB/c mouse at 10 mg/kg, po by LC-MS/MS analysis; format: ADME, organism-based; parameters: route oral, dose 10 mg/kg; conditions: in vivo
[19] = Toxicity in human U-87 MG cells xenografted BALB/c mouse assessed as body weight loss at 10 mg/kg, po qd for 16 days relative to control; format: organism-based; conditions: in vivo, 384 h, time 16 day
MDA-MB-468 = experiment: Antiproliferative activity against human MDA-MB-468 cells assessed as cell growth inhibition measured after 4 to 6 days by celltiter-glo luminescent cell viability assay; format: functional, cell-based
COLO 205 [20] = experiment: Antitumor activity against human COLO 205 cells xenografted in BALB/c mouse assessed as reduction in tumor volume at 30 mg/kg, po q3d for 11 days measured post last dose by caliper method; format: functional, organism-based; conditions: time 11.0 day
Cytochrome P450 2C19 = Cytochrome P450 2C19 (Homo sapiens, UniProt P33261); experiment: Time-dependent inhibition of CYP2C19 in human liver microsomes at 10 uM in presence of NADPH by LC-MS/MS analysis; format: ADME
COLO 205 [21] = experiment: Antitumor activity against human COLO 205 cells xenografted in BALB/c mouse assessed as tumor growth inhibition at 3 mg/kg, po qd for 11 days relative to control; format: functional; conditions: COLO 205, po, time 11 day, read-out: TGI
[22] = Oral bioavailability in Sprague-Dawley rat at 6 mg/kg by LC-MS/MS analysis; format: ADME, organism-based; conditions: in vivo
[23] = Oral bioavailability in BALB/c mouse at 10 mg/kg by LC-MS/MS analysis; format: ADME, organism-based; conditions: in vivo
CYP2D6 = CYP2D6 (Homo sapiens, UniProt P10635); experiment: Inhibition of CYP2D6 in human liver microsomes at 10 uM measured after 20 mins in presence of NADPH by LC-MS/MS analysis relative to control; format: ADME
CYP2C19 = CYP2C19 (Homo sapiens, UniProt P33261); experiment: Inhibition of CYP2C19 in human liver microsomes at 10 uM measured after 20 mins in presence of NADPH by LC-MS/MS analysis relative to control; format: ADME
Cytochrome P450 2C9 = Cytochrome P450 2C9 (Homo sapiens, UniProt P11712); experiment: Time-dependent inhibition of CYP2C9 in human liver microsomes at 10 uM in presence of NADPH by LC-MS/MS analysis; format: ADME
[24] = AUC (0 to t) in Sprague-Dawley rat at 3 mg/kg, iv by LC-MS/MS analysis; format: ADME, organism-based; parameters: dose 3 mg/kg; conditions: in vivo
[25] = molecular target: Cyclin-dependent kinase 7/ cyclin H (Homo sapiens, UniProt P50613); experiment: Inhibition of CDK7/cyclin H (unknown origin); format: protein-complex assay
[26] = Toxicity in human COLO 205 cells xenografted BALB/c mouse assessed as body weight loss at 3 mg/kg, po qd for 11 days relative to control; format: organism-based; conditions: in vivo, time 11 day

Sequence of Cyclin-dependent kinase 7/ cyclin H (P51946 whole entry): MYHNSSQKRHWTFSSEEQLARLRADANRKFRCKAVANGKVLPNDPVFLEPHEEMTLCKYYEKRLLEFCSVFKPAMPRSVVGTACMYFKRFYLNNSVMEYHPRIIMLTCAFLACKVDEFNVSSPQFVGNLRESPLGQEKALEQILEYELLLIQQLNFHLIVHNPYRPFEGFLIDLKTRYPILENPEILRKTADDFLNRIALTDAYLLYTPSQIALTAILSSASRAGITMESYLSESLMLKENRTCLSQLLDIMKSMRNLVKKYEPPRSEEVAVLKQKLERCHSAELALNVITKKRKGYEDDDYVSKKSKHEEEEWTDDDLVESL
Sequence of Cyclin-dependent kinase 7/ cyclin H (P50613 whole entry): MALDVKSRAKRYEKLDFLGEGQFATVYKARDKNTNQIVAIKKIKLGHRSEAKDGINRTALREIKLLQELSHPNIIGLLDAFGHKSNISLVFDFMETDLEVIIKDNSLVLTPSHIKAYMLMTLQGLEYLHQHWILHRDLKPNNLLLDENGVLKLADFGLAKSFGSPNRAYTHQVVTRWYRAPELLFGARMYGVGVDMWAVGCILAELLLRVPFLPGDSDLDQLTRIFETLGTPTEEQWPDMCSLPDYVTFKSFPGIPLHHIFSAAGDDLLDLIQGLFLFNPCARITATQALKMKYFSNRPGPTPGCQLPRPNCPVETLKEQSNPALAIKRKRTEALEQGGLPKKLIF
Sequence of CDK4/Cyclin D3 (P11802 whole entry, the tested form may be a part): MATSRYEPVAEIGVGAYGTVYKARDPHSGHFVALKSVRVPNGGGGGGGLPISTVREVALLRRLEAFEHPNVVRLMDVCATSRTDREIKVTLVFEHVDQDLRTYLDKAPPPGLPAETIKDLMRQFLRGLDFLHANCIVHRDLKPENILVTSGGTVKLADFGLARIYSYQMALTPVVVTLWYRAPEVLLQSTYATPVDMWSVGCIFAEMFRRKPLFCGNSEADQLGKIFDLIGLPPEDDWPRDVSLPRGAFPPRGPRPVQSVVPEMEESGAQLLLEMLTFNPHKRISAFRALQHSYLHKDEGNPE
Sequence of CDK4/Cyclin D3 (P30281 whole entry, further chain, the tested form may be a part): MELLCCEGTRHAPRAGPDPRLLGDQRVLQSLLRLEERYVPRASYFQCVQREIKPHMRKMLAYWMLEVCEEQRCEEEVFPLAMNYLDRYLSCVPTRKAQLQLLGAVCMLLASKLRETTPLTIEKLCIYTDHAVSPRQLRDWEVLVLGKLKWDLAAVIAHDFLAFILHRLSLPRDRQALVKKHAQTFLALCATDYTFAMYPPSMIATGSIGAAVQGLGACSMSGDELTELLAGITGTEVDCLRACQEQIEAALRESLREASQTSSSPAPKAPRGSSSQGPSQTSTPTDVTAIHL
Sequence of CYP2C19 (P33261 whole entry): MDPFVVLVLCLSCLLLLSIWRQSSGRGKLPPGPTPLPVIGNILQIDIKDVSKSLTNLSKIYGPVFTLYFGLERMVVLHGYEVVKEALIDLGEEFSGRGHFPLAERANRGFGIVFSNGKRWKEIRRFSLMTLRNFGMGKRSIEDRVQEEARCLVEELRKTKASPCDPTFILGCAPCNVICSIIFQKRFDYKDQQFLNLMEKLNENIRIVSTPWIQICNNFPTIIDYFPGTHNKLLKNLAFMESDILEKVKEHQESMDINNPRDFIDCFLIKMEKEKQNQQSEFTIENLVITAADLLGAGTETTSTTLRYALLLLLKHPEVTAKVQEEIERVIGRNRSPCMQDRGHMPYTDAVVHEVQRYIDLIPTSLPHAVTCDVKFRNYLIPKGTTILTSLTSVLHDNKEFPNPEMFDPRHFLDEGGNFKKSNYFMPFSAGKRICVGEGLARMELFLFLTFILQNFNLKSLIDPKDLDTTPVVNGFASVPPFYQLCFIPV
Sequence of Cytochrome P450 2C19 (P33261 whole entry): as above
Sequence of Cyclin-dependent kinase 1/cyclin B1 (P06493 whole entry): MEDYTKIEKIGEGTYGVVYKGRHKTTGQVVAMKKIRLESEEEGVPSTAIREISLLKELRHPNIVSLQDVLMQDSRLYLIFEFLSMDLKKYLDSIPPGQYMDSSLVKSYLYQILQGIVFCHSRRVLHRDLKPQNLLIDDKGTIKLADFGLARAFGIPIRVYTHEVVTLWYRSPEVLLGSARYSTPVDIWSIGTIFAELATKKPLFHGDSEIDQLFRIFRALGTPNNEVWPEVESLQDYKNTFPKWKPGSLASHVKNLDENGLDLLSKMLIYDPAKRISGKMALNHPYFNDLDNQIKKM
Sequence of Cyclin-dependent kinase 1/cyclin B1 (P14635 whole entry, further chain): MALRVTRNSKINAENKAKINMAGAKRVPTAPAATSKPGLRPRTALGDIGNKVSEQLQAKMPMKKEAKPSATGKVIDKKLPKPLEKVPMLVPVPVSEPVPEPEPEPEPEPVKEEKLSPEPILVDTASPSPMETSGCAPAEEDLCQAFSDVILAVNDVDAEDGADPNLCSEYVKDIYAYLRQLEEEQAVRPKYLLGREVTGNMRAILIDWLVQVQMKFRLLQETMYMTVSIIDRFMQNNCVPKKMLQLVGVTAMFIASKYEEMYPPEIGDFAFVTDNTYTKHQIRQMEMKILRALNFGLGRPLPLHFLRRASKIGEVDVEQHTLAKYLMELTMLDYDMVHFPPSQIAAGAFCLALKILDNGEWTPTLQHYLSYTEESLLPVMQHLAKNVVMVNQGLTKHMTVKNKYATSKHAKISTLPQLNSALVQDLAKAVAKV
Sequence of Cytochrome P450 2C9 (P11712 whole entry): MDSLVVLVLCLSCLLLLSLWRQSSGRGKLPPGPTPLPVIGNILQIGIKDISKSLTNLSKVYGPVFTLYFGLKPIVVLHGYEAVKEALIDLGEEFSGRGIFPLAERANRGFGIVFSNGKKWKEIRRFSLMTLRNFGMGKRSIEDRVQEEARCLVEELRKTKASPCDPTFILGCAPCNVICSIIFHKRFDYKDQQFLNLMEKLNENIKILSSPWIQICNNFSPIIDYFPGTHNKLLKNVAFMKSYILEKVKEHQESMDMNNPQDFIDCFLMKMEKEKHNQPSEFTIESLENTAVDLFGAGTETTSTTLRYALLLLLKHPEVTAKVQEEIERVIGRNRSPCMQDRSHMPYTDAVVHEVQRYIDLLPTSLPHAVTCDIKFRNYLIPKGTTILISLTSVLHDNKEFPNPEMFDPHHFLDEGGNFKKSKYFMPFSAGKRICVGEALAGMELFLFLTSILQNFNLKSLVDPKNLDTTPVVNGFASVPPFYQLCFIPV
Sequence of CYP2C9 (P11712 whole entry): as above
Sequence of CDK6/Cyclin D3 (Q00534 whole entry, looked up, the tested form may be a part): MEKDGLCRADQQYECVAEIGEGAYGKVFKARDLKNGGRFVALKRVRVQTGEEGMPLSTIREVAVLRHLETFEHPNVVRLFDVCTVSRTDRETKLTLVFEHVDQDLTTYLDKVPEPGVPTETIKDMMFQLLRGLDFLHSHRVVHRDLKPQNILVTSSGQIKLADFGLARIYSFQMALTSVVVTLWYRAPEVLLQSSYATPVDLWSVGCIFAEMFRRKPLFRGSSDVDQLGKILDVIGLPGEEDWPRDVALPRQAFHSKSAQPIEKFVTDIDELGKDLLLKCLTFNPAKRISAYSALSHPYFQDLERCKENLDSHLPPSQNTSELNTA
Sequence of CYP2D6 (P10635 whole entry): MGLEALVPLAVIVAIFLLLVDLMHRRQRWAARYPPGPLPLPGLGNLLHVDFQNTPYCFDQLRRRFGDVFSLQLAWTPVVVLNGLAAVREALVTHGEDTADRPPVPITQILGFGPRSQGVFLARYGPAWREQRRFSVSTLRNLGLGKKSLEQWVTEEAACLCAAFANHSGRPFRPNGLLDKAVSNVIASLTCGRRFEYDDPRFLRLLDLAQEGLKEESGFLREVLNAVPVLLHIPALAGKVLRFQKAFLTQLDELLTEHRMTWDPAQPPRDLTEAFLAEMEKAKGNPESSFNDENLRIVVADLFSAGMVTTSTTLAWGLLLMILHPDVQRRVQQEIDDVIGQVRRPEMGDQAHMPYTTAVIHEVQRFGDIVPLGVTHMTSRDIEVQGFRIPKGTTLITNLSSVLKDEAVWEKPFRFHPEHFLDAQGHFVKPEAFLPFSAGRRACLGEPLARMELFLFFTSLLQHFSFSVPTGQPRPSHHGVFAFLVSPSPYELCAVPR
Sequence of Cytochrome P450 2D6 (P10635 whole entry, the tested form may be a part): as the sequence (P10635 whole entry) above

Compound: CC(=O)c1c(C)c2cnc(Nc3ccc(N4CCNCC4)cc3)nc2n2cc(C(C)C)nc12
- AUC(0-t) [1]: 318 ng·h/mL
- T/C (U-87 MG [2]): 53%
- inhibition at […], 10 µM (CYP2C9): 11%
- half-life [3]: 3.25 h
- IC50 (CDK9/cyclin T1): 23.4 nM
- Activity [4]: < 20%
- Activity (COLO 205 [5]): Active
- microsomal CLint at 1 µM [6]: 54 µL/min/mg
- half-life [7]: 4.08 h
- TDI (Cytochrome P450 2D6): Not Active
- IC50 (CDK6/Cyclin D3): 2 nM
- Cmax [8]: 110 ng/mL
- IC50 (COLO 205 [9]): 56.4 nM
- IC50 [10]: 309 nM
- Vd [11]: 35.2 L/kg
- IC50 (U-87 MG [12]): 84.6 nM
- IC50 (CDK2/Cyclin A2): 18.9 nM
- inhibition in vivo at 10 mg/kg (U-87 MG [13]): 54%
- AUC(0-t) [14]: 1120 ng·h/mL
- half-life [15]: 6.17 h
- AUCt [16]: 472 ng·h/mL
- IC50 (CDK4/Cyclin D3): 0.8 nM
- T/C (COLO 205 [17]): 33%
- Cmax [18]: 90 ng/mL
- Activity [19]: < 20%
- IC50 (MDA-MB-468): 874 nM
- Activity (COLO 205 [20]): Active
- TDI (Cytochrome P450 2C19): Not Active
- inhibition in vivo at 3 mg/kg (COLO 205 [21]): 63%
- bioavailability [22]: 65.2%
- bioavailability [23]: 20.5%
- inhibition at […], 10 µM (CYP2D6): 14%
- inhibition at […], 10 µM (CYP2C19): 21%
- TDI (Cytochrome P450 2C9): Not Active
- AUCt [24]: 861 ng·h/mL
- IC50 [25]: 94.7 nM
- Activity [26]: < 20%
